Data from patent US9050301B2, “Pharmaceutical composition for treatment of corneal endothelial wounds containing angiogenin” (Chung-Ang University Industry-Academy Cooperation Foundation, priority 2013, dated 2015).

Legend:
[1] = tested on: rabbit corneal endothelium; assay: Ratio of corneas without opacity and edema (digital camera images) after trans-corneal freezing damage; format: in vivo; details: angiogenin 200 μg/mL
Procedure: (§1) 30 eyeballs of 15 healthy white New Zealand rabbits weighing about 2.0 kg to about 3.0 kg without external opacification were anesthetized by intramuscular injection with 12.5 mg/kg of tiletamine/zolazepam (Zoletil®, VirbacLab, France) and 12.5 mg/kg of zylazine (Rompun®, BayerKorea, Korea). Afterwards, 0.5% povidone-iodine was used for disinfection of the whole range of experimental sight. Referring to FIG. 1, an 8 mm-diameter stainless steel rod as a probe was immersed in liquid nitrogen for 3 minutes, removed therefrom once the temperature of the liquid nitrogen reached −196° C., and brought into contact to the central cornea for 15 seconds. Then, each of the eyeballs was washed with 10 cc of 0.9% saline solution. In order to prevent the occurrence of corneal infection, the rabbit corneas were given instillation of Levofloxacin (Cravit®, Santen, Japan) three times a day for 3 days after the damage was induced.
(§2) 3 groups consisting of 10 eyeballs given instillation of angiogenin (200 μg/mL), 7 eyeballs given Y-27632 (10 mM) inhibitor of Rho-associated coiled-coil kinase (ROCK) pathway, and 7 eyeballs as a control group given phosphate-buffered solution (PBS) were each subjected to 50 μl of instillation at a time, and more particularly, 6 times a day for the first 2 days, and then, 4 times a day for the following 2 days, starting immediately after inducing freeze-damages to the trans-corneal endothelium. That is, the instillation was performed 20 times in total for 4 days.
Then, the groups were subjected to the evaluation of corneal opacity and corneal edema by using a digital camera (VLUUNV100HD, Samsung, Suwon, Korea) to obtain images taken in a diagonal direction.
Experiments have been carried out to identify effects of angiogenin-induced PI3k-Akt signaling pathway in terms of recovering the corneal transparency after inducing damages to the corneal endothelium. After inducing freeze-damages to the corneal endothelium, 4 eyeballs out of 30 rabbit eyeballs in total were subjected to 50 μl of each of 200 μg/mL of angiogenin and 200 μM of PI3k-Akt pathway inhibitor, LY294002 instillation at a time every 3 minutes, and more particularly, 6 times a day for the first 2 days, and then, 4 times a day for the following one day. That is, the instillation was performed 16 times in total for 3 days.

[2] = tested on: rabbit corneal endothelial cells; assay: In vitro scratch wound healing of cultured rabbit corneal endothelial cells; format: cell-based; details: for Wound healing index: angiogenin 2 μg/ml, mean ± SE
Procedure: A corneal endothelial tissue segment obtained from remaining corneal portions other than the central 8 mm corneal portion in cadaveric cornea donated for transplantation and a corneal endothelial tissue segment of a normal rabbit were cultured. Then, each of the corneal tissues was divided into 6 pieces and washed by shaking 6 times in a petri dish to which 7 ml of 5% penicillin/streptomycin (P/S) was added. Then, the washed tissues were each transferred to a 6-well dish such that the endothelial layer was facing down, and the tissues were semi-dried until the dishes were slightly drained. Next, the corneal endothelial cells of the rabbit cornea were cultured in a culture medium (EGM™-2BulletKit™, Lonza, Allendale, USA) containing human epidermal growth factor (hEGF), hydrocortisone, 5% fetal bovine serum (FBS), human […] (hFGF), insulin-like growth factor (IGF), ascorbic acid, gentamicin, and amphotericin-B (EGM™-2BulletKit™, Lonza, Allendale, USA), and the corneal endothelial cells of the human cornea were cultured in a culture medium (Opti-MEM®, Gibco®, New York, USA) supplemented with 8% FBS, calcium (CaCl2), chondroitinsulfate, ascorbic acid, multi-vitamin solution, gentamicin, anti-Pseudomonas aeruginosa antibiotic, pituitary extract, epidermal growth factor (EGF), and nerve growth factor (NGF), for about 5 to 7 days.
Experiments have been carried to identify angiogenin effects on migration and proliferation of the corneal endothelial cells. When the cultured rabbit corneal endothelial cells had about 80-90% confluency in three 6-well dishes, the central part of each well was scratched by a tip of a 200 μl pipette to make wounds. Then, each of the three 6-well dishes was replaced by a culture medium containing 1) 5% FBS (in the control group), 2) Y-27632 (10 μM), and 3) angiogenin (2 μg/ml). At every 0 hour, 12 hours, 24 hours, and 48 hours, digital images of the remaining wounded areas were obtained at 40× magnification of the optical microscope, and measured in pixels by using the Image J software. In addition, each of the three 6-well dishes containing the cultured corneal endothelial cells in the human was scratched in the same manner as described above to make wounds, and then, replaced by a culture medium containing 1) 5% FBS (in the control group), 2) Y-27632 (10 μM), and 3) angiogenin (5 μg/ml). At every 6 hours and 24 hours, the wounded areas were measured by using the Image J software. The ratio of initial wounded area versus recovered area was defined as wound healing index, which is calculated as shown below. Here, the initial wounded area was corrected to be equal before the calculation. Wound healing index(%)=(Initial wounded area−Remaining wounded area)/Initial wounded area

[3] = tested on: rabbit corneal endothelium; assay: Central corneal thickness by ultrasonic pachymeter after trans-corneal freezing damage; format: in vivo
Procedure: as §1, §2
After inducing freeze-damages to trans-corneal of all the eyeballs from the group given instillation of angiogenin, the group given instillation of Y-27632, and the control group, the central corneal thickness was measured 3 times by using an ultrasonic corneal pachymeter (POCKET-II, Quantel medical, Clemont-Ferrand, France) at every 48 hours (2nd day), 72 hours (3rd day), 144 hours (6th day), and 192 hours (8th day), thereby calculating a mean value thereof. Here, the maximum measurable value of the ultrasonic corneal pachymeter was referred to 1,000 μm so the maximum corneal thickness was also considered as 1,000 μm.

[4] = tested on: human corneal endothelial cells; assay: In vitro scratch wound healing of cultured human corneal endothelial cells; format: cell-based; details: for Wound healing index compared with the control group: 6 and 24 hours, angiogenin 5 μg/ml, Y-27632 10 μM
Procedure: A corneal endothelial tissue segment obtained from remaining corneal portions other than the central 8 mm corneal portion in cadaveric cornea donated for transplantation and a corneal endothelial tissue segment of a normal rabbit were cultured. Then, each of the corneal tissues was divided into 6 pieces and washed by shaking 6 times in a petri dish to which 7 ml of 5% penicillin/streptomycin (P/S) was added. Then, the washed tissues were each transferred to a 6-well dish such that the endothelial layer was facing down, and the tissues were semi-dried until the dishes were slightly drained. […]
Experiments have been carried to identify angiogenin effects on migration and proliferation of the corneal endothelial cells. […] At every 0 hour, 12 hours, 24 hours, and 48 hours, digital images of the remaining wounded areas were obtained at 40× magnification of the optical microscope, and measured in pixels by using the Image J software. […] At every 6 hours and 24 hours, the wounded areas were measured by using the Image J software. The ratio of initial wounded area versus recovered area was defined as wound healing index, which is calculated as shown below. […]
Experiments have been carried to identify optimal concentration of angiogenin to improve in vitro migration and proliferation improvement of the cultured human corneal endothelial cells. […] At every 0 hour, 12 hours, 24 hours, and 48 hours, the wounded areas were measured by using the Image J software. […]

[5] = 48 h after freeze damage, Y-27632 10 mM instillation
[6] = 72 h after freeze damage, Y-27632 10 mM, LY294002 200 μM instillation
[7] = 144 h after freeze damage, Y-27632 10 mM instillation
[8] = 192 h after freeze damage, Y-27632 10 mM instillation
[9] = 48 h after freeze damage, maximum measurable value 1,000 μm
[10] = 72 h after freeze damage, maximum measurable value 1,000 μm
[11] = 144 h after freeze damage, angiogenin 200 μg/mL, Y-27632 10 mM instillation, mean ± SE
[12] = 192 h after freeze damage, angiogenin 200 μg/mL, Y-27632 10 mM instillation, mean ± SE

| Molecule | Ratio of number of cornea without opacity and edema (digital camera images) [1, 5] [%] | Ratio of number of cornea without opacity and edema (digital camera images) [1, 6] [%] | Ratio of number of cornea without opacity and edema (digital camera images) [1, 7] [%] | Ratio of number of cornea without opacity and edema (digital camera images) [1, 8] [%] | Wound healing index compared with the control group ([2]; Y-27632 10 μM, 12, 24, 48 hours) | Central corneal thickness ([3]; 0 h (baseline), mean ± SE) [μm] | Central corneal thickness [3, 9] | Central corneal thickness [3, 10] | Central corneal thickness [3, 11] [μm] | Central corneal thickness [3, 12] [μm] | Wound healing index compared with the control group [4] | Wound healing index ([2]; 12 hours) [%] | Wound healing index ([2]; 24 hours) [%] | Wound healing index ([2]; 48 hours) [%] | Central corneal thickness ([3]; 144 h after freeze damage, angiogenin 200 μg/mL, Y-27632 10 mM instillation, mean ± SE, listed as angiogenin) | Central corneal thickness ([3]; 192 h after freeze damage, angiogenin 200 μg/mL, Y-27632 10 mM instillation, mean ± SE, listed as angiogenin) | Angiogenin concentration giving the highest wound healing index ([4]; 1, 2, 5 and 10 μg/ml tested, 0, 12, 24, 48 hours) [µg/mL] |
| --- | --- | --- | --- | --- | --- | --- | --- | --- | --- | --- | --- | --- | --- | --- | --- | --- | --- |
| C[C@@H](N)[C@H]1CC[C@H](C(=O)Nc2ccncc2)CC1 [Y-27632, reference compound] | 0 | 14.3 | 14.3 | 14.3 | did not show significant difference | 361.7 ± 3.4 | >1,000 μm | >1,000 μm | 571.6 ± 43.0 | 432.5 ± 332.2 | high wound healing index | – | – | – | – | – | – |
| Angiogenin: 14.4-kDa single chain protein of 123 amino acids, secreted protein capable of inducing angiogenesis | 10 | 20 | 37.5 | 50 | – | 350.4 ± 6.2 | >1,000 μm | >1,000 μm | 503.0 ± 21.1 | 390.3 ± 10.5 | high wound healing index | 28.7±2.9 | 66.7±4.3 | 78.7±2.9 | about 503.0±21.07 μm | about 390.3±10.55 μm | 5 |
